Where two headings read alike, the source gives them in different places. Marks after values point to notes of the source that are not given here.
How the values were obtained:
[1] = tested on: rats; test: Inhibition of focal ischemia, middle cerebral artery occlusion (MCAO) test; type: in vivo
Method: The focal anti-ischemic activity of the compounds of formula (I) or (II) of the present invention was measured by the “middle cerebral artery occlusion” (MCAO) test (Bartus Stroke 11:2265 (1994) and Sydserff et al, Brit. J. Pharmacol. 114:1631 (1995)). […] After a histological process (TTC staining) 24 h later, the infarcted area was determined by a computer assisted scanner program and was compared to the results obtained in a control group treated with the vehicle.

[2] = tested on: Lewis rats; test: Autoimmune encephalomyelitis model, histological symptoms; type: in vivo; details: 7.5 mg/kg ip., day 24 after immunization
Method: (§1) 5-15 animals were used in each group. Their weights were 160-180 g (Lewis rats, female) and 180-220 g (Lewis rats, male). The activity of the compounds was determined according to the symptom score values, and compared to those of the control group (see Table 6). Histopathological investigations were carried out on the brain stem, the spinal cord, and the sciatic nerve (Gijbels et al., J. Clin. Invest. 94:2177 (1994)) using 5-10 animal/group.
(§2) Compounds of the invention were further investigated in the autoimmune encephalomyelitis model in rats as outlined in this description before, with the variance that 10 animals were used in each group, of weights 140-160 g (Lewis rats, female).

[3] = tested on: CD1 mice; test: Muscle relaxant activity, rotarod test; type: in vivo; details: Mus musculus, ip
[4] = tested on: Lewis rats; test: Autoimmune encephalomyelitis model, neurological (clinical) symptoms; type: in vivo; details: for Neurological symptoms (change, %) / change in vivo at 7.5 mg/kg: 7.5 mg/kg ip.; for Neurological symptoms (change, %): day 24 after immunization; for change in vivo at 1.875 mg/kg / change in vivo at 3.75 mg/kg / change in vivo at 7.5 mg/kg: Rattus norvegicus, ip, read-out: Neurological symptoms (change compared to controls, %); for change in vivo at 1.875 mg/kg: 1.875 mg/kg ip.; for change in vivo at 3.75 mg/kg: 3.75 mg/kg ip.
Method: as §1, with “The compounds were administered intraperitoneally twice a day for 8 days, starting on day 10 after immunization and with an observation period until symptoms were present. 5-15” for “5-15”
as §2

[5] = tested on: CD1 mice; test: Muscle relaxant activity, inclined screen test; type: in vivo; details: Mus musculus, ip
[6] = tested on: CD1 mice; test: Anticonvulsant activity, bemegride induced seizures; type: in vivo; details: Mus musculus; po.; read-out: Bemegride ED50
Method: (§3) The anti-seizure activity of some of the compounds of the present invention was measured using the electroshock test (J. Pharmacol. Exp. Ther. 106:319 (1952)) and the results are shown in Table 3. The spasmolytic activity of the compounds of the present invention was investigated by using e.g., pentetrazole (J. Pharmacol. Exp. Ther. 108:168 (1953)), strychnine (J. Pharmacol. Exp. Ther. 129:75 (1960)), bemegrid, nicotine, bicuculline, 4-aminopyridine and mercapto-propionic acid for inducing the clonic-tonic seizures and lethality. The investigated compounds were administered orally in three doses using 10 male CD1 mice/dose, usually 60 min before the induction of seizures.

[7] = tested on: CD1 mice; test: Anticonvulsant activity, bicuculline induced seizures; type: in vivo; details: Mus musculus; po.; read-out: Bicuculline ED50
Method: as §3

[8] = tested on: CD1 mice; test: Anticonvulsant activity, maximal electroshock seizure (MES) test; type: in vivo; details: Mus musculus, po.
Method: as §3

[9] = tested on: AMPA/kainate receptors; test: Inhibition of AMPA induced whole-cell current in acutely isolated cerebellar Purkinje cells (patch clamp); type: cell-based; details: 5 μM AMPA, read-out: Inhibition of the ion-currents caused by 5 μM AMPA, IC50
Method: (§4) In the first model the spreading depression caused by glutamate agonists (i.e., AMPA or kainate) was studied, while in the second one the transmembrane ion-current induced by the activation of the AMPA/kainate receptors was measured directly.
The activity of the compounds of the present invention was studied on acutely isolated cerebellar Purkinje cells by measuring the whole-cell current induced by 5 μM AMPA according for example to the method described by Bleakman et al (Neuropharmacology 12:1689 (1996)).

[10] = tested on: CD1 mice; test: Anticonvulsant activity, 3-mercapto-propionic acid induced seizures; type: in vivo; details: Mus musculus; po.; read-out: 3-MPA ED50
Method: as §3

[11] = tested on: CD1 mice; test: Anticonvulsant activity, nicotine induced seizures; type: in vivo; details: Mus musculus; po.
Method: as §3

[12] = tested on: AMPA receptors; test: Inhibition of AMPA induced spreading depression in isolated chicken retina; type: cell-based; details: AMPA (5 μM)
Method: as §4
Inhibition of AMPA Induced “Spreading Depression” in Isolated Chicken Retina—
The AMPA antagonistic effect of the compounds of formula (I) or (II) was studied in the in vitro “spreading depression” model (Sheardown Brain Res. 607:189 (1993)). The AMPA antagonists prolong the latency of the development of the “spreading depression” caused by AMPA (5 μM).

[13] = tested on: CD1 mice; test: Anticonvulsant activity, pentetrazole induced seizures; type: in vivo; details: Mus musculus; po.; read-out: Pentetrazol ED50
Method: as §3

[14] = tested on: CD1 mice; test: Anticonvulsant activity, strychnine induced seizures; type: in vivo; details: Mus musculus; po.; read-out: Strychnine ED50
Method: as §3

[15] = tested on: CD1 mice; test: Anticonvulsant activity, 4-aminopyridine induced seizures; type: in vivo; details: Mus musculus; po.; read-out: 4-AP ED50
Method: as §3

[16] = tested on: CD1 mice; test: Anti-tremor effect, oxotremorine induced tremor; type: in vivo; details: Mus musculus; po., Litchfield-Wilcoxon, limits in brackets; read-out: ED50, tremor induced by Oxotremorin 1 mg/kg ip.
[17] = tested on: CD1 mice; test: Anti-tremor effect, GYKI 20039 induced tremor; type: in vivo; details: Mus musculus; po., Litchfield-Wilcoxon, limits in brackets; read-out: ED50, tremor induced by GYKI 20039 10 mg/kg ip.
[18] = 2 mg/kg iv. 6x in every 30 min, first treatment 180 min after occlusion
[19] = 0.5 h, 30′, read-out: MES 30′ ED50
[20] = 1 h, 60 min before induction, read-out: MES (MES 60′) ED50

Row | Compound | Decrease of the infracted area in % compared to that of the control [1, 18] | ED50 [3] | change in vivo at 3.75 mg/kg ([4]; female rats, 0-8 day) | change in vivo at 3.75 mg/kg ([4]; female rats, 0-14 day) | change in vivo at 3.75 mg/kg ([4]; male rats, 0-8 day) | change in vivo at 3.75 mg/kg ([4]; male rats, 0-14 day) | change in vivo at 7.5 mg/kg ([4]; female rats, 0-8 day) | ED50 [5] | ED50 [6] | melting point | ED50 [7] | ED50 [8, 19] | ED50 [8, 20] | IC50 [9] | ED50 [10] | ED50 [11] | IC50 [12] | ED50 [13] | ED50 [14] | ED50 [15] | also measured
1 | C[C@@H]1Cc2cc3c(cc2C(c2ccc(N)cc2)=NN1c1nccs1)OCO3 [Example 61, (R)-5-(4-Aminophenyl)-8-methyl-7-(2-thiazolyl)-8,9-dihydro-7H-1,3-dioxolo[4,5-h][2,3]benzodiazepine] | 46* % | 5.4 mg/kg | -44% | -48% | -44% | -46% | -56% | 10.7 mg/kg | 34.4 mg/kg | 125 to 130 °C | 31 mg/kg | 11.5 mg/kg | 13.1 mg/kg | 490 nM | 11 mg/kg | 59.3 mg/kg | 1000 to 5000 nM | 32.5 mg/kg | 35.4 mg/kg | 17.6 mg/kg | Decrease of the infracted area in % compared to that of the control ([1]; 1 mg/kg iv. 6x in every 30 min, first treatment 120 min after occlusion): 63** %; Decrease of the infracted area in % compared to that of the control ([1]; 1 mg/kg iv. 6x in every 30 min, first treatment 180 min after occlusion): 16%; Neuroprotective activity when administered 3 h after the occlusion ([1]; result in words): significant activity; Histological symptoms (change, %) ([2]; female rats): −5%; Histological symptoms (change, %) ([2]; male rats): −20%; Neurological symptoms (change, %) ([4]; female rats): −53%; Neurological symptoms (change, %) ([4]; male rats): −54%; change in vivo at 1.875 mg/kg ([4]; female rats, 0-8 day): -18%; change in vivo at 1.875 mg/kg ([4]; female rats, 0-14 day): -7%; change in vivo at 1.875 mg/kg ([4]; male rats, 0-8 day): 13%; change in vivo at 1.875 mg/kg ([4]; male rats, 0-14 day): 5%; change in vivo at 7.5 mg/kg ([4]; female rats, 0-14 day): -53%; change in vivo at 7.5 mg/kg ([4]; male rats, 0-8 day): -60%; change in vivo at 7.5 mg/kg ([4]; male rats, 0-14 day): -63%; Activity compared to the reference compound (histopathological and pharmacological investigations) ([4]; result in words): more active than the reference compound GYKI 53773
2 | C[C@@H]1Cc2cc3c(cc2C(c2ccc(N)cc2)=NN1C1=NCCS1)OCO3 [Example 69, (R)-5-(4-Aminophenyl)-7-(4,5-dihydro-thiazol-2-yl)-8-methyl-8,9-dihydro-7H-1,3-dioxolo-[4,5-h][2,3]benzodiazepine] | 28% | 1.2 mg/kg | 43% | 58% | 35% | -40% | -29% | 12.2 mg/kg | 33.3 mg/kg | 148 to 150 °C | 18.1 mg/kg | 8.7 mg/kg | 14.7 mg/kg | 420 nM | 34.2 mg/kg | 16.8 mg/kg | 900 nM | 46.9 mg/kg | 27.7 mg/kg | 16.6 mg/kg | change in vivo at 7.5 mg/kg ([4]; female rats, 0-14 day): -24%; change in vivo at 7.5 mg/kg ([4]; male rats, 0-8 day): -51%; change in vivo at 7.5 mg/kg ([4]; male rats, 0-14 day): -50%
3 | C[C@@H]1Cc2cc3c(cc2C(c2ccc(N)cc2)=NN1c1nncs1)OCO3 [Example 84, (R)-5-(4-Aminophenyl)-8-methyl-7-(1,3,4-thiadiazol-2-yl)-8,9-dihydro-7H-1,3-dioxolo-[4,5-h][2,3]benzodiazepine] | – | 1.4 mg/kg | – | – | – | – | – | 12.8 mg/kg | 16.7 mg/kg | 219 to 220 °C | 17 mg/kg | 10 to 15 mg/kg | 12.5 mg/kg | 90 nM | 6.8 mg/kg | 77.2 mg/kg | 850 nM | 17.1 mg/kg | 18.2 mg/kg | 16.6 mg/kg | –
4 | CCc1nnc(N2N=C(c3ccc(N)cc3)c3cc4c(cc3C[C@H]2C)OCO4)s1 [Example 89, (R)-5-(4-Aminophenyl)-7-(5-ethyl-1,3,4-thiadiazol-2-yl)-8-methyl-8,9-dihydro-7H-1,3-dioxolo-[4,5-h][2,3]benzodiazepine] | – | 1.7 mg/kg | – | – | – | – | – | 4.3 mg/kg | 11.2 mg/kg | 142 to 144 °C | 17.1 mg/kg | – | 10.5 mg/kg | – | > 50 mg/kg | 45.9 mg/kg | – | 11.5 mg/kg | 15.7 mg/kg | 14.3 mg/kg | –
5 | Cc1nnc(N2N=C(c3ccc(N)cc3)c3cc4c(cc3C[C@H]2C)OCO4)o1 [Example 102, (R)-5-(4-Aminophenyl)-8-methyl-7-(5-methyl-1,3,4-oxadiazol-2-yl)-8,9-dihydro-7H-1,3-dioxolo-[4,5-h][2,3]benzodiazepine] | – | 2.9 mg/kg | – | – | – | – | – | 14.8 mg/kg | 27.9 mg/kg | 145 to 149 °C | 25.8 mg/kg | – | 13.9 mg/kg | – | > 50 mg/kg | 31.7 mg/kg | – | 35.7 mg/kg | 26.7 mg/kg | 20.4 mg/kg | –
6 | Cc1cc(C2=NN(c3nncs3)[C@H](C)Cc3cc4c(cc32)OCO4)ccc1N [Example 167, (R)-5-(4-Amino-3-methylphenyl)-8-methyl-7-(1,3,4-thiadiazol-2-yl)-8,9-dihydro-7H-1,3-dioxolo-[4,5-h][2,3]benzodiazepine] | – | 0.8 mg/kg | – | – | – | – | – | 4.24 mg/kg | 8.33 mg/kg | 143 to 148 °C | 12.7 mg/kg | 4.78 mg/kg | 5.85 mg/kg | 70 nM | 10.3 mg/kg | – | 64 nM | 9.66 mg/kg | 10.5 mg/kg | 10.8 mg/kg | ED50 [16]: 4.81 mg/kg; ED50 [17]: 7.73 mg/kg

Source: US20070027143A1, “Novel substituted 2,3-benzodiazepine derivatives” (priority 2003, published 2007)
